Test results published in US9539298B2, “Lissencephaly therapeutic agent” (OSAKA CITY UNIVERSITY, priority 2010, dated 2017).

How the values were obtained:
[1] = test system: LIS1 heterozygous adult mice; experiment: LIS1 protein in adult mouse brains after SNJ-1945 intraperitoneal administration; format: in vivo; details: three weeks after birth
Procedure: SNJ-1945 was dissolved in dimethyl sulfoxide (DMSO) at a concentration of 100 mg/ml, and intraperitoneally injected to LIS1 heterozygous mice so that the administration amount was 100 μg/per gram of body weight at the time of three weeks after birth. To determine the effect of SNJ-1945 administration, LIS1 proteins of normal adult mice and LIS1 heterozygous adult mice (administered with SNJ-1945) were measured. In the SNJ-1945 administration group, the brain tissues were taken at 0 hour (immediately after the administration), 1 hour, 2 hours, 4 hours, 8 hours, 12 hours, 16 hours, 24 hours, 48 hours, and 72 hours after the administration to measure LIS1 protein, so as to determine the effect of SNJ-1945 over time. Six mice for each group were used for the measurement of LIS1 protein (n=6).
For the measurement of LIS1 protein amount, the weight of the brains was immediately measured as soon as the brains were removed.

[2] = test system: nerve cells from cerebellums of FVB mice; experiment: Analysis of toxicity of calpain inhibitors on cultured cerebellar nerve cells; format: cell-based, mouse
Procedure: The cerebellums were removed from 4- to 5-day-old FVB mice (15 mice). In a Ca^2+-free Hank's Balanced Salt Solution (CF-HBSS; Ca^2+, Mg^2+-free Hank's Balanced Salt Solution (CMF-HBBS, Sigma) containing 5 mM magnesium chloride (MgCl2, Wako) and 4 mg/mL glucose (Wako)), the meninges were removed and cut into pieces. After the cerebellum fragments were washed with CF-HBSS, the fragments were allowed to stand for 20 minutes at 37° C. in CF-HBSS containing 0.025% trypsin (Invitrogen) and 6.25 μg/mL deoxyribonuclease (DNase, Sigma), and then centrifuged. The resulting tissues were washed with 10% HS/BME (DNase Medium; obtained by adding 5 mM MgCl2 and 25 μg/mL DNase to Basal Medium Eagle (BME, Invitrogen) containing 10% Horse Serum (HS, Invitrogen)) and centrifuged. DNase medium was added to the cells, and the cells were transferred to a 24-well plate (Nunc). The cells were kept still for 30 minutes at 37′C under an atmospheric environment of 5% CO2, thereby suspending the cells. The cell suspension was isolated, and then washed with 10% HS/BME. The suspension was transferred again to a 24-well plate to be cultured for 16 hours at 37° C. under an atmospheric environment of 5% CO2. The cells were collected to BME containing 1% Bovine Serum Albumin (BSA, Sigma) and 0.5% N2 supplement (Invitrogen), and the cell suspension was seeded on a 35 mm glass base dish (Iwaki) coated beforehand with poly-L-lysine (Sigma) and laminin (Sigma) in an amount of […]. The cells were cultured for 8 hours at 37° C. under an atmospheric environment of 5% CO2. The cultured nerve cells were used as test nerve cells.
A culture solution (10% HS/BME) containing SNJ-1945, E64d, or ALLN was prepared in the following manner. SNJ-1945 dissolved in dimethyl sulfoxide (Sigma, D-5879) was mixed with a culture solution so that the final concentration became 200 μM, and was kept still for an hour at 37° C., thereby completely dissolving SNJ-1945 in the culture medium. ALLN and E64d were also dissolved in culture media in the same manner, except that ALLN and E64d were added to the culture media to final concentrations of 50 μM and 100 μM, respectively. The culture media in which the components were dissolved were added to the test nerve cells prepared above in an amount of 2 ml/well, and the cells were cultured for 16 hours. As a control, the same culture was conducted using a culture medium containing the same amount of dimethyl sulfoxide (Sigma, D-5879). After culture, the cells were observed using an inverted microscope (TCS FP5S, Leica). A 20× objective lens was used. Images were taken using dedicated software (LAS AF, Leica) under the condition of 512×512 pixels.

[3] = test system: LIS1 heterozygous mice (Lis1+/−) embryos; experiment: Apoptosis in mouse embryo brains (TUNEL staining); format: in vivo; details: 100 μg/g IP to pregnant mice on alternate days from E9.5, read at E15.5, FIG. 9
Procedure: A neo(−)129S-Pafah1b1^tm2Awb/J homozygous male mouse lacking neo gene was mated with five homozygous EII-Cre transgenic female mice (FVB/N-Tg (EIIa-cre) C5379Lmgd/J, The Jackson Laboratory) by raising them in the same mouse cage. In total, six sets of mouse cages were prepared for the mating experiment. Plug check (confirmation of mating) was carried out every morning between 7 and 10 am, thereby determining the gestation cycle. SNJ-1945 was dissolved in dimethyl sulfoxide (DMSO) at a concentration of 100 mg/ml, and intraperitoneally injected to the pregnant mice carrying LIS1 heterozygous mice (Lis1^+/−) and the pregnant mice carrying control mice (normal mouse embryos), so that the administration amount became 100 μg per gram of body weight on alternate days from Day 9.5 of the embryonic period (E9.5). On Day 15.5 of the embryonic period (E15.5), the pregnant mice were killed by cervical fracture, and the mouse embryos were removed and immobilized for 24 hours by 4% paraformaldehyde (Wako: 162-16065). After substitution with PBS, paraffin embedding was performed by a standard method. The tissue block was cut into 5 μm pieces. Each piece was adhered to an APS-coated slide glass. After deparaffinization, 20 μg/ml proteinase K/PBS treatment was conducted for 15 minutes at room temperature, and 3% H2O2/PBS treatment was performed for ten minutes at room temperature. […]

`COCCOCCOC(=O)N[C@@H](CC(C)C)C(=O)N[C@@H](Cc1ccccc1)C(=O)C(=O)NC1CC1` [compound 17, ((1S)-1-((((1S)-1-Benzyl-2,3-dioxo-3-(cyclopropylamino)propyl)amino)carbonyl)-3-methylbutyl)carbamic acid 5-methoxy-3-oxapentyl ester] was tested, and the “LIS1 protein amount in adult brain” value ([1]; 100 μg per gram of body weight IP, FIG. 8) was “recovered to substantially the normal level”, the “duration of the effect on LIS1 protein after a single dose” value ([1]; 100 μg/g IP) was “continued for at least three days” and the “neurite elongation and cell migration (cytotoxicity)” value ([2]; 200 μM, 16 hours, FIG. 24) was “normal neurite elongation and cell migration were also observed, and no significant difference from the control was observed”. The cell toxicity ([2]; compared with other calpain inhibitors) was “did not show any cell toxicity even in a high concentration” and the “apoptosis in embryo brain (TUNEL)” value [3] was “significantly reduced”.
